From article PMC11355573, “A New Renieramycin T Right-Half Analog as a Small Molecule Degrader of STAT3” (Marine Drugs, 2024)
Where two headings read alike, the source gives them in different places.

Experiments:
H460 cells [1] = assay: Wound healing assay (migration); assay type: cell-based, human; settings: H460, 1 and 2.5 μM, at 48 h and 72 h, vs untreated cells
Protocol: Wound healing assay was conducted to assess the effects of DH_31 on migration. H292 and H460 cells (4.0–4.2 × 10^4 cells per well) were seeded in 96-well plates. Following overnight incubation, wounds were created by scraping the monolayer cells with a 10 μL pipette tip, and non-adherent cells were washed off with PBS. The cells were treated with different concentrations of DH_31 (0–2.5 μM) in the growth medium containing 1% FBS for 72 h at 37 °C. […] The scratched area was analyzed by using ImageJ™ software (Image J 1.52a, Rasband, W., National Institutes of Health, Bethesda, MD, USA). Cell migration was determined by the rate of cells moving towards the scratched area.

H460 cells [2] = assay type: cell-based; settings: 24 h
Protocol: (§1) Apoptosis is a crucial mechanism of cell death induced by anticancer drugs. We further analyzed the apoptosis induction effect of the potent small molecules, namely DH_28, DH_30, and DH_31. Nuclear morphology detected by the staining with nucleus-specific fluorescence dye Hoechst 33342 and cell-impermeable PI for necrotic detection was performed. Morphologic changes by means of condensed and/or fragmented nuclei were observed after 24 h of treatment (Figure 2D). […] Therefore, DH_31 was selected for further experiments.
(§2) Figure 2 The effect of RT right-half analogs on cytotoxicity in NSCLC and human normal lung epithelial (BEAS-2B) cell lines and apoptotic cell death in NSCLC cells. (A) NSCLC H292 and H460 cells were treated with derivatives of RT right-half analogs for 24 h and analyzed using MTT assay to assess cytotoxicity. (B) IC50 values for H292 and H460 cell lines were calculated. (C) BEAS-2B cells were treated with DH_28, DH_30, DH_31, and TM-(−)-18 for 24 h. The cytotoxic effects were evaluated using an MTT assay, and the IC50 values for BEAS-2B cells were determined. (D) H292 and H460 cells were seeded and treated with 0–10 μM of DH_28, DH_30, and DH_31 for 24 h. Hoechst 33342 and PI were used to stain the cell nuclei. Images were obtained under a fluorescence microscope. (E) The percentages of cell death were calculated based on the stained images in H292 and H460 cells. Data represent the mean ± SD (n = 3). *, **, and *** indicate a statistically significant difference between the treated and the untreated cells at p < 0.05, p < 0.01, and p < 0.001, respectively. TEXT PRINTED IN THE PICTURE: (B) DH_17: IC50 ± SD (μM) H292: 20.50 ± 3.69; IC50 ± SD (μM) H460: > 100 | (B) DH_20: IC50 ± SD (μM) H292: 21.46 ± 3.77; IC50 ± SD (μM) H460: > 100 | (B) DH_23: IC50 ± SD (μM) H292: 17.50 ± 3.08; IC50 ± SD (μM) H460: > 100 | (B) DH_26: IC50 ± SD (μM) H292: 7.18 ± 2.39; IC50 ± SD (μM) H460: > 100 | (B) DH_28: IC50 ± SD (μM) H292: 9.56 ± 1.87; IC50 ± SD (μM) H460: 11.48 ± 1.87 | (B) DH_30: IC50 ± SD (μM) H292: 7.80 ± 2.30; IC50 ± SD (μM) H460: 4.51 ± 0.78 | (B) DH_31: IC50 ± SD (μM) H292: 5.54 ± 1.04; IC50 ± SD (μM) H460: 2.90 ± 0.58 | (B) TM-(–)-18: IC50 ± SD (μM) H292: > 100; IC50 ± SD (μM) H460: 7.89 ± 1.27 | (C) DH_28: BEAS-2B IC50 ± SD (μM): 16.46 ± 2.11 | (C) DH_30: BEAS-2B IC50 ± SD (μM): 5.50 ± 1.70 | (C) DH_31: BEAS-2B IC50 ± SD (μM): 6.51 ± 1.40 | (C) TM-(–)-18: BEAS-2B IC50 ± SD (μM): 7.25 ± 1.25 DOUBTS OF THE COPYIST ABOUT THIS PICTURE: Panel C, DH_28, IC50: small print, 16.46 ± 2.11 is the best reading; 6 could be 8 / Panel C, DH_30, IC50: small print, 5.50 ± 1.70 is the best reading; 5 could be 6 / Panel C, DH_31, IC50: small print, 6.51 ± 1.40 is the best reading; 6 could be 8 or 5 / Panel C, TM-(–)-18, IC50: small print, 7.25 ± 1.25 is the best reading

H292 cells = assay type: cell-based; settings: for apoptosis: 24 h
Protocol: as §1, §2

STAT3 mRNA = STAT3 mRNA by Real-time qPCR; assay type: cell-based, human; settings: H460, 0–2.5 μM, 8 h
Protocol: To explore whether the reduction in total STAT3 protein after DH_31 treatments (as shown in Figure 5B–E) occurs at the mRNA or protein levels, we first investigated mRNA levels using Real-time qPCR. […] To evaluate whether DH_31 affects STAT3 stability, pretreatment with MG132, a potent selective proteasome inhibitor, was performed. H460 cells were pretreated with or without MG132 (10 μM) for 1 h and then cells were either treated with DH_31 for 6 h or left untreated. […] The proteasome can recognize and degrade protein targets that are conjugated by single or poly-ubiquitin molecules. To investigate the ubiquitination level of STAT3 with DH_31 treatments, the ubiquitination level was evaluated using immunoprecipitation and Western blot analysis of the STAT3–ubiquitin complex in the lung cancer cells treated with DH_31 and in untreated cells.
Quantitative Real-time PCR was performed to determine the effect of DH_31 on mRNA levels of STAT3 and EMT-related genes. H460 cells (4.0 × 10^5 cells per well) were seeded in 6-well plates. Following overnight incubation, the cells were treated with different concentrations of DH_31 (0–2.5 μM)) for 8 h at 37 °C. After treatment, total RNA was isolated using the RNeasy kit (Qiagen, Germany) and subsequently subjected to cDNA synthesis using qScript cDNA Supermix (Quanta bio, Beverly, MA, USA), following the manufacturers’ protocols. […]

SMILES: COc1c(C)cc2c(c1O)[C@@H]1CN(Cc3ccc4ccccc4c3)[C@@H](C#N)[C@H](C2)N1C [DH_31, (1R,4R,5S)-10-hydroxy-9-methoxy-8,11-dimethyl-3-(naphthalen-2-ylmethyl)-1,2,3,4,5,6-hexahydro-1,5-epiminobenzo[d]azocine-4-carbonitrile]
- cell migration across the wound space (H460 cells [1]): significantly decreased
- necrosis (H460 cells [2]; H460, 1 µM): did not cause significant necrosis
- apoptotic cell death (H460 cells [2]; H460, 10 µM): significant apoptotic cell death
- necrosis (H460 cells [2]; H460, 10 µM): did not cause significant necrosis
- apoptosis (H292 cells; H292, 1 µM): significant apoptosis
- apoptosis (H292 cells; H292, 10 µM): significant apoptosis
- necrosis (H292 cells; H292, 10 µM, 24 h (p < 0.001)): Necrosis was detected
- mRNA expression of STAT3 (STAT3 mRNA): did not change significantly
